Experimental data reported in article PMC11091879, “Inhibitors of the Thioesterase Activity of Mycobacterium tuberculosis Pks13 Discovered Using DNA-Encoded Chemical Library Screening” (ACS Infectious Diseases, 2024).
Values after ≈ are worked out from the molar mass of the structure shown. Like-named read-outs stand apart in the source and are kept apart here.

Columns and labels:
[1] = test system: Mtb; conditions: in vivo; cited from earlier work
[2] = test system: Mtb H37Rv; design: species or system Mycobacterium tuberculosis; conditions: in vivo, po
[3] = test system: pks13-TetON -ATc (hypomorph); assay type: cell-based, Mycobacterium tuberculosis
[4] = test system: WT H37Rv; experiment: microbe, parasite or virus in culture; assay type: cell-based, Mycobacterium tuberculosis; conditions: for MIC: Mycobacterium tuberculosis, H37RV
[5] = target: T1, Pks13-TE (Mycobacterium tuberculosis, UniProt I6X8D2); experiment: biochemical
[6] = target: T1, Pks13-TE; experiment: biochemical; assay type: binding
[7] = test system: pks13-TetON +ATc (Pks13-hypermorph); assay type: cell-based, Mycobacterium tuberculosis
[8] = in vitro; conditions: human, plasma
[9] = in vivo, po
[10] = Mouse pharmacokinetics studies; conditions: female, CD-1, mouse, plasma
[11] = in vivo; conditions: female, CD-1, mouse
[12] = in vitro; conditions: mouse, microsomes
[13] = in vitro; conditions: mouse, plasma
[14] = Metabolic stability in mouse liver microsomes (MLMs)
[15] = read-out: MIC (whole cell activity)

T1 sequence (I6X8D2 1451-1733 limits assumed): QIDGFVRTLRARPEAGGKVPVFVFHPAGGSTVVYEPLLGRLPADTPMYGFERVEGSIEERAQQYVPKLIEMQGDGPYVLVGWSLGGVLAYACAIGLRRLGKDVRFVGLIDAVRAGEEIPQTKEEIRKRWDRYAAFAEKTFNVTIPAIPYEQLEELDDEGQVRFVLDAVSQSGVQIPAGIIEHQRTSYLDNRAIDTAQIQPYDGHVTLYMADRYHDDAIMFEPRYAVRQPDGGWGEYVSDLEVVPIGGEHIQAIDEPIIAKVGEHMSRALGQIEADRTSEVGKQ

**Q.** Which “reduction of the burden” value [1] does the source give for NNC(=O)c1ccncc1 [INH, Isoniazid, reference compound] here?
**A.** 1 log10

**Q.** And the “reduction in CFU (lung)” value ([2]; 25 mg/kg)?
**A.** ~1.5 log10

**Q.** With CC(=O)N1CCN(C(=O)C2CCN(c3nc(C)cc(C(=O)NCc4ccccc4)n3)CC2)CC1 [X13045] as the molecule, how does the “Hypomorph MIC fold shift (WT/-ATc)” value [3] read?
**A.** 1.5 fold

**Q.** What about the MIC ([4]; read-out: MIC (Mtb inhibition)) of the same molecule?
**A.** 390 µM (≈ 181 µg/mL)

**Q.** And the MIC [4, 15]?
**A.** 390 µM (≈ 181 µg/mL)

**Q.** What about the MIC ([4]; read-out: WT H37Rv MIC (uM)) of the same molecule?
**A.** 390 µM (≈ 181 µg/mL)

**Q.** What about the IC50 [5] of the same molecule?
**A.** 15000 nM

**Q.** What about the IC50 ([6]; IC50 (uM)) of the same molecule?
**A.** 15.1 µM

**Q.** Which results are given for COCC1(CN(C)C(=O)c2ccc(CCn3cc(-c4ccc(-c5cc(OC)ccc5OC)nc4)nn3)cc2)CC1 [X20403]?
**A.** Hypermorph MIC fold shift (+ATc/WT) [7]: 2.3 fold; Hypomorph MIC fold shift (WT/-ATc) [3]: 0.88 fold; MIC ([4]; read-out: MIC (Mtb inhibition)): 0.05 µM (≈ 0.0271 µg/mL); MIC ([4]; read-out: WT H37Rv MIC (uM)): 0.05 µM (≈ 0.0271 µg/mL); IC50 [5]: 57 nM; IC50 ([6]; IC50 in the TAMRA binding assay): 0.5 µM

**Q.** Which results are given for COc1ccc(OC)c(-c2ccc(-c3cn(CCc4ccc(C(=O)N(C)C)cc4)nn3)cn2)c1 [X20404]?
**A.** Hypermorph MIC fold shift (+ATc/WT) [7]: 2.3 fold; Hypomorph MIC fold shift (WT/-ATc) [3]: 2.9 fold; MIC ([4]; read-out: MIC (Mtb inhibition)): 0.25 µM (≈ 0.114 µg/mL); MIC [4, 15]: 0.25 µM (≈ 0.114 µg/mL); MIC ([4]; read-out: WT H37Rv MIC (uM)): 0.25 µM (≈ 0.114 µg/mL); fraction unbound at 4 h, 10000 ng/mL [8]: 0.044; IC50 ([6]; IC50 (enzyme inhibition)): 0.4 µM; IC50 ([6]; IC50 (uM)): 0.43 µM; fold higher maximum concentration in blood compared to three other compounds ([9]; female, CD-1, mouse, 25 mg/kg): ~10 fold; plasma concentrations relative to MIC ([9]; mouse, 200 mg/kg): above the MIC; half-life ([10]; intravenous, 5 mg/kg): 36 min; AUC(0-t) ([10]; iv, 5 mg/kg): 13500 ng·h/mL; AUC(0-t) ([10]; po, 25 mg/kg): 3700 ng·h/mL; AUC(0-t) ([10]; po, 50 mg/kg): 14200 ng·h/mL; AUC(0-t) ([10]; po, 100 mg/kg): 33300 ng·h/mL; AUC(0-t) ([10]; po, 200 mg/kg): 98100 ng·h/mL; Vd [11]: 0.3 L/kg; bioavailability [11]: 8%; clearance [11]: 6.2 mL/min/kg; microsomal CLint at 5 μM [12]: 26.2 µL/min/mg; fraction unbound at 4 h, 10000 ng/mL ([13]; mouse PPB (%)): 0.023; fraction unbound at 4 h, 10000 ng/mL ([13]; plasma protein binding): 0.02; reduction of the lung CFU compared to untreated control ([2]; 100 mg/kg): approximately 0.4 log10; reduction of the lung CFU compared to untreated control ([2]; 200 mg/kg): 0.8 log10; half-life at 5 μM [14]: 26.8 min

**Q.** For Cc1cc(C(=O)NCc2ccccc2)nc(N2CCC(C(=O)N3CCN(C(=O)c4ccc(-n5nc(C)cc5C)nc4)CC3)CC2)n1 [X22239], which “Hypermorph MIC fold shift (+ATc/WT)” value [7] is on record?
**A.** 3.7 fold

**Q.** And the “Hypomorph MIC fold shift (WT/-ATc)” value [3]?
**A.** 1.9 fold

**Q.** What about the MIC ([4]; read-out: WT H37Rv MIC) of the same molecule?
**A.** 0.066 µM (≈ 0.041 µg/mL)

**Q.** And the IC50 ([6]; read-out: IC50)?
**A.** 0.64 µM

**Q.** With Cc1cc(C(=O)NCc2ccccc2)nc(N2CCC(C(=O)N3CCN(C(=O)c4ccc5nc(C)ccc5c4)CC3)CC2)n1 [X22275] as the molecule, how does the “Hypermorph MIC fold shift (+ATc/WT)” value [7] read?
**A.** 2.7 fold

**Q.** What about the “Hypomorph MIC fold shift (WT/-ATc)” value [3] of the same molecule?
**A.** 2.3 fold

**Q.** What about the MIC ([4]; read-out: WT H37Rv MIC) of the same molecule?
**A.** 0.048 µM (≈ 0.0284 µg/mL)

**Q.** What about the IC50 ([6]; read-out: IC50) of the same molecule?
**A.** 0.62 µM

**Q.** For Cc1cc(CNC(=O)c2cc(C)nc(N3CCC(C(=O)N4CCN(C(=O)c5ccc6nc(C)ccc6c5)CC4)CC3)n2)cc(C)n1 [X22277], which “Hypermorph MIC fold shift (+ATc/WT)” value [7] is on record?
**A.** 1.8 fold

**Q.** What about the “Hypomorph MIC fold shift (WT/-ATc)” value [3] of the same molecule?
**A.** 2.6 fold

**Q.** And the MIC ([4]; read-out: WT H37Rv MIC)?
**A.** 0.54 µM (≈ 0.335 µg/mL)

**Q.** And the IC50 ([6]; read-out: IC50)?
**A.** 0.53 µM

**Q.** What does the source list for Cc1cc(C(=O)NCc2ccccc2)nc(N2CCC(C(=O)N3CCN(C(=O)c4cc5c(Cl)cccn5n4)CC3)CC2)n1 [X22324]?
**A.** Hypermorph MIC fold shift (+ATc/WT) [7]: 3.7 fold; Hypomorph MIC fold shift (WT/-ATc) [3]: 3.3 fold; WT H37Rv MIC [4]: 0.22 µM; IC50 ([6]; read-out: IC50): 0.53 µM

**Q.** Which results are given for Cc1cc(C(=O)NCc2ccccc2)nc(N2CC(C(=O)N3CCN(C(=O)c4ccc5nc(C)ccc5c4)CC3)C2)n1 [X22327]?
**A.** Hypermorph MIC fold shift (+ATc/WT) [7]: 3.6 fold; Hypomorph MIC fold shift (WT/-ATc) [3]: 3.1 fold; MIC ([4]; read-out: WT H37Rv MIC): 1.3 µM (≈ 0.733 µg/mL); IC50 ([6]; read-out: IC50): 0.56 µM
